Laboratory results: patent US5710015A, “cDNA cloning of inositol monophosphatase” (Merck, Sharp & Dohme, Ltd., priority 1992, dated 1998)
Like-named read-outs stand apart in the source and are kept apart here. Blank lines part the entries; values can stand above or below the molecule they belong to.

Key:
[1] = target: T1, bovine inositol monophosphatase (bovine enzyme, source not specified) (Bos taurus, UniProt P20456); assay: Inhibition of bovine inositol monophosphatase (parallel comparison); type: biochemical; conditions: parallel experiment
T1 sequence (P20456 1-277): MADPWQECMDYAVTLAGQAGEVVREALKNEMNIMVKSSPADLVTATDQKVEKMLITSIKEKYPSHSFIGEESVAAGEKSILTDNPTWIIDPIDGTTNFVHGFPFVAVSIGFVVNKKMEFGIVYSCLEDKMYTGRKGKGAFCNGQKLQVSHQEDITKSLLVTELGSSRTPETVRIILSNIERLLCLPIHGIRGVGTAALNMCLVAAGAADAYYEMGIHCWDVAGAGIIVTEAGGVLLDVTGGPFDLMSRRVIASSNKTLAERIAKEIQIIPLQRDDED
Description: (§1) All comparisons are from data obtained in parallel experiments carried out in this study.
One unit of enzyme activity represents 1 μmol of substrate hydrolysed/min, at 37° C. […] Kinetic analyses were performed as described previously [Gee et al., supra].

[2] = target: T2, recombinant human brain inositol monophosphatase (IMP), SEQ. ID NO. 2, expressed in E. coli BL21-DE3 (Homo sapiens, UniProt P29218); assay: Kinetics and inhibition of recombinant human inositol monophosphatase ([14C]inositol release from DL-Ins(1)P)
T2 sequence (P29218 1-277): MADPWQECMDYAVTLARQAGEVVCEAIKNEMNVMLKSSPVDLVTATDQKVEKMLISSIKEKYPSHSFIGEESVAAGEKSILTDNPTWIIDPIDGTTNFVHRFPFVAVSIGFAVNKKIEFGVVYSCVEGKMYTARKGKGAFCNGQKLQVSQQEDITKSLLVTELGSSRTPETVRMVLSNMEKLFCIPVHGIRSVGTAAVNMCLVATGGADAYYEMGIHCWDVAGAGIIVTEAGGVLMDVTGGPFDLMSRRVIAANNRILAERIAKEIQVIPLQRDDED
Description: Initial rates determined with several substrate concentrations were fitted to a Michaelis-Menten expression by non-linear least-squares regression analysis. […] Bovine brain values are as reported in Gee et al., supra, but confirmed here.
as §1
One unit of enzyme activity represents 1 μmol of substrate hydrolysed/min, at 37° C. Protein concentrations were determined by the method of Bradford [Bradford, M., (1976), Anal. Biochem., 72, pp. 248-252]. Kinetic analyses were performed as described previously [Gee et al., supra].

[3] = target: T3, native bovine brain inositol monophosphatase (Bos taurus, UniProt P20456); conditions: bovine brain enzyme, as reported in Gee et al., but confirmed here, cited from earlier work
T3 construct: both the native and recombinant bovine enzymes; from tissue; host or cells: bovine brain
T3 sequence (P20456 1-277): T1 sequence (P20456 1-277)

[4] = substrate: O=P(O)(O)O[C@@H]1[C@H](O)[C@H](O)[C@@H](O)[C@H](O)[C@H]1O; assay: purified protein, by the assay type; conditions: mean ± S.E.M. (n=3)

Ki ([1]; competitive inhibitor, read-out: apparent Ki): 1.1 µM | Ki [2]: 2.7 µM
Molecule: O=P(O)(O)O[C@H]1CC[C@H](O)C[C@H]1O [1S-phosphoryloxy-2R,4S-dihydroxycyclohexane]

Molecule: O=P(O)(O)O [Pi]
Ki ([1]; read-out: Ki (Pi)): 500 µM | Ki ([2]; read-out: Ki (Pi), competitive inhibition, recombinant human IMP): 140 µM

Molecule: O=P(O)(O)O[C@@H]1[C@H](O)[C@H](O)[C@@H](O)[C@H](O)[C@H]1O (relative stereo) [DL-Ins(1)P]
Vmax ([3]; substrate DL-Ins(1)P): 13.3 ± 0.9 μmol/min per mg of protein | Km ([3]; read-out: Km for DL-Ins(1)P): 160 ± 20 µM

B1: recombinant human brain inositol monophosphatase (IMP), SEQ. ID NO. 2, expressed in E. coli BL21-DE3 (Homo sapiens) (protein)
chain: T2 sequence (P29218 1-277)
Km ([4]; other: human recombinant enzyme, 37° C.): 75 ± 3 µM

B2: native human platelet-derived inositol monophosphatase (Homo sapiens) (protein)
chain: T2 sequence (P29218 1-277)
Km ([4]; other: human platelet enzyme, 37.0 °C): 108 ± 3 µM

B3: recombinant bovine inositol monophosphatase (Bos taurus) (protein)
chain: T1 sequence (P20456 1-277)
Km ([4]; other: bovine recombinant enzyme, 37.0 °C): 120 ± 7 µM
